Key:
Type in all cases: cell-based, Escherichia coli
[1] = tested on: ferrichrome-mediated iron transport; assay: [55Fe]-ferrichrome uptake, ExbD cys substitutions, with or without CuoP treatment; conditions: 0.03 mM CuoP in supplemented 1xM9
Protocol: Since CuoP treatment catalyzed almost 100% dimer formation for some of the cys substitutions, attempts were made to determine activity of the dimeric form. […] The amount of CuoP was reduced 10-fold to 0.03 mM and cells had to be suspended in fully supplemented M9 medium as described in Experimental Procedures.
Activity assays. Initial rates of [^55Fe]-ferrichrome uptake were determined. For assays where cultures were treated with copper-(1,10-phenanthroline)3, harvested cells were pelleted, resuspended in 1×M9 supplemented as described above (no sodium propionate added), and treated with an equal volume 0.06 mM CuoP ([final] 0.03 mM) or 0.5 mM sodium phosphate buffer, pH 7.4 (buffer only) for 5 min, at 37° C. with aeration. Cells were pelleted, and the standard iron transport protocol was followed starting with resuspension in the assay medium.
In all assays the CuoP solution was removed and assays carried out in identical media, but the medium present during the 5 min CuoP treatment was important and differentially affected activity of a wild-type strain.

[2] = tested on: ferrichrome-mediated iron transport; assay: as above; conditions: 0.03 mM CuoP, cells in unsupplemented 1xM9
[3] = tested on: TonB; assay: Proteinase K accessibility assay in spheroplasts; conditions: wild-type W3110 spheroplasts; pmf collapsed; 60 μM CCCP or 10 mM DNP
From the text: Proteinase K accessibility assays. For reversibility assays, spheroplasts were generated from wild-type cells (W3110) and treated with CCCP to collapse pmf. […] Samples were harvested and treated with proteinase K or left untreated. […] To re-establish pmf for the remaining sample, the proteinase K untreated, CCCP-treated spheroplasts were subsequently pelleted, washed, and resuspended in buffer without CCCP. These washed spheroplasts were divided in half. One sample was re-treated with CCCP, and one was treated with solvent only (DMSO). Both were then treated with proteinase K. As a control, whole cells were also treated with proteinase K or left untreated. All manipulations occurred at 4° C.
For standard assays, spheroplasts were prepared and treated with proteinase K as described previously (Larsen et al, 1999, Mol. Microbiol. 31, 1809-1824). The effect of protonophores was examined after treatment of spheroplasts with 60 μM carbonylcyanide-m-chlorophenylhydrazone (CCCP) or 10 mM DNP compared to an equal volume of solvent only, dimethyl sulfoxide (DMSO). After limited proteolysis, TCA precipitated samples were visualized on immunblots of 11% or 15% SDS polyacrylamide gels with TonB-specific monoclonal antibodies or ExbD-specific polyclonal antibodies, respectively. All manipulations occurred at 4° C.

[4] = tested on: TonB-ExbD complex; assay: Formaldehyde crosslinking in spheroplasts; conditions: CCCP-treated W3110 spheroplasts, 60 μM
Protocol: Formaldehyde crosslinking in spheroplasts. Spheroplasts were prepared as above for standard assays and treated with DMSO solvent or 60 μM CCCP. A CCCP-treated sample was also treated with proteinase K for 15 min as described above. For formaldehyde crosslinking, spheroplasts were pelleted and resuspended in 100 mM sodium phosphate buffer, pH 6.8 containing 0.25M sucrose and 2 mM MgSO4. For CCCP-treated spheroplasts, CCCP was maintained in the crosslinking buffer. Samples were treated with 1% monomeric paraformaldehyde (inverting to mix) for 15 min at room temperature. Pellets were solubilized at 60° C. in Laemmli sample buffer.

[5] = tested on: 55Fe-ferrichrome transport; assay: Transport of 55Fe-loaded ferrichrome (ExbD deletion variants)
Protocol: For assays in 1×M9, 37 μM Fe (proteinase K accessibility, [^55Fe]-ferrichrome uptake, formaldehyde crosslinking, and sucrose density gradient fractionation), the following percentages of arabinose were added at subculture to induce expression of ExbD variants near native levels of ExbD: pKP660=no inducer, pKP761=0.0008%, pKP760=0.0008%, pKP759=0.3% glucose (to repress basal levels of overexpression), pKP758=0.002% glucose (to repress basal levels of overexpression), pKP762=0.0006%, pKP757=0.0007%, pKP756=0.006%, pKP755=0.008%, pKP754=0.15%, pKP753=0.18%, pKP752=0.2%, pKP763=0.18%, pKP764=0.2%, pKP724=0.006%.
Activity assays: Spot titer assays were performed. Initial rates of [^55Fe]-ferrichrome uptake were determined.

## copper-(1,10-phenanthroline)3 [CuoP, reference compound]
[1]
  effect on iron transport activity of a wild-type strain: did not inhibit activity
[2]
  iron transport of a wild-type strain remaining after CuoP treatment: about 25%

## O=[N+]([O-])c1ccc(O)c([N+](=O)[O-])c1 [DNP]
[3]
  TonB conformation (proteinase K sensitivity) after protonophore treatment: Identical results

## N#CC(C#N)=NNc1cccc(Cl)c1 [CCCP, carbonylcyanide-m-chlorophenylhydrazone]
[3]
  TonB conformation (proteinase K sensitivity) after protonophore treatment: detection of the previously observed proteinase K resistant conformation of TonB
[4]
  TonB-ExbD formaldehyde crosslinked complex: not detected

B1: ExbD: wild-type E. coli ExbD protein, plasmid-encoded (pKP1194, exbD in pBAD24) (protein, listed as Escherichia coli)
chain: MAMHLNENLDDNGEMHDINVTPFIDVMLVLLIIFMVAAPLAIVDVKVNLPASTSTPQPRPEKPVYLSVKADNSMFIGNDPVTDETMITALNALTEGKKDITIFFRADKTVDYETLMKVMDTLHQAGYLKIGLVGEETAKAK
[5]; 55Fe-loaded ferrichrome, plasmid-encoded ExbD variant in strain KP1522
  Initial Rate of Transport: 672.2 ± 15.97
[5]; initial rate of variant strain divided by initial rate of wild-type strain x 100, strain KP1522
  % Wild-type Activity: 100%
